The data set can be described thus: solvent given as SMILES.

For `Cc1ccc(-c2c3nc(c(-c4ccc(C)cc4)c4ccc([nH]4)c(-c4ccc(C)cc4)c4nc(c(-c5ccc(C)cc5)c5ccc2[nH]5)C=C4N2CCOCC2)C=C3)cc1`, for the setting “in CS(C)=O”, the emission maximum was 666 nm.

Take `CC1=CC(C)=[N+]2C1=C(c1ccc(I)cc1)c1c(C)cc(C)n1[B-]21OCCO1`: the emission maximum (in ClC(Cl)Cl) came to 520.7 nm.

As for `O=P1(c2ccccc2)c2cc(N3c4ccccc4Sc4ccccc43)ccc2-c2ccc(N3c4ccccc4Sc4ccccc43)cc21`, the emission maximum (in Cc1ccccc1) came to 557 nm and the emission maximum (in c1ccc2c(c1)c1ccccc1n2-c1ccc(-c2ccc(-n3c4ccccc4c4ccccc43)cc2)cc1) amounted to 554 nm.

`COc1ccc2c(c1)CCc1c(-c3ccccc3)c3n(c1-2)[B-](F)(F)[N+]1=c2ccc4ccccc4c2=C(c2ccccc2)C1=N3` gave an emission maximum (in ClC(Cl)Cl) of 730 nm.

For `c1ccc(-c2ccc(-c3ccc(-c4cc(-c5ccc(-c6ccc(-c7ccccc7)cc6)cc5)cc(-c5ccc(-c6ccc(-c7ccccc7)cc6)cc5)c4)cc3)cc2)cc1`, where the note is “in C1COCCO1”, the emission maximum came to 375 nm.

`O=C1c2ccccc2C(=O)N1c1ccc(Cn2cncn2)cc1` registered an emission maximum (in C1CCOC1) of 361 nm; an emission maximum (in C1COCCO1) of 313 nm; an emission maximum (in CC#N) of 471 nm; an emission maximum (in CC(C)=O) of 407 nm; an emission maximum (in CC(C)O) of 427 nm; an emission maximum (in CCCCCC) of 310 nm. Moreover, the emission maximum reads like this: (in CCCCO) 402 nm; (in CCO) 422 nm; (in CCOC(C)=O) 355 nm; (in CCOCC) 339 nm; (in CN(C)C=O) 503 nm; (in CO) 440 nm. For the same molecule, the emission maximum reads like this: (in CS(C)=O) 563 nm; (in Cc1ccccc1) 323 nm; (in ClCCl) 367 nm.

`C[Si]1(c2ccccc2)C(c2ccc3c(c2)c2ccccc2n3-c2ccccc2)=C(c2ccccc2)C(c2ccccc2)=C1c1ccc2c(c1)c1ccccc1n2-c1ccccc1` yielded an emission maximum (in C1CCOC1) of 526 nm.

`Cc1c(OCC(=O)O)cc2c3c([nH]c2c1C)C(=O)CCC3`: the emission maximum is, setting by setting: (in C1COCCO1) 403.62 nm; (in CC#N) 419.17 nm; (in CCO) 461.12 nm; (in CS(C)=O) 427.12 nm; (in O) 507.23 nm.

As to `CCC1=C(C)C2=Cc3c(I)c(I)c(I)n3[B-](F)(F)[N+]2=C1C`, the emission maximum by setting is: (in C1CCCCC1) 551.5 nm; (in CC(C)=O) 553 nm; (in CCO) 557 nm; (in CCOC(C)=O) 553.5 nm; (in CO) 554 nm; (in OCC(F)(F)F) 550.5 nm.

`CCCCOC(=O)c1cc(Cl)c2c3c(Cl)cc4c5c(cc(Cl)c(c6c(Cl)cc(C(=O)OCCCC)c1c26)c53)C(=O)N(c1c(C(C)C)cccc1C(C)C)C4=O`: the emission maximum (in Cc1ccccc1) is on record as 530 nm.

As to `Cc1ccccc1-c1c2ccc(=[N+]3CCOCC3)cc-2oc2cc(N3CCCCC3)ccc12`, the emission maximum is listed as 582 nm (in CCO) and 579 nm (in ClCCl).

For the molecule `c1ccc2c(c1)Oc1ccccc1N2c1ccc2c(c1)c1cc(N3c4ccccc4Oc4ccccc43)ccc1c1nc3ccccc3nc21`, under “in Cc1ccccc1”, the emission maximum is reported as 614 nm.

For the molecule `CCCCCCCCCCCCc1sc(CCCCCC)c2c3cc(CCCCCC)sc3c3sc(CCCCCC)cc3c12`, the emission maximum (in ClC(Cl)Cl) amounted to 423 nm.

`COc1ccc(-n2c3c4ccccc4nc(-c4ccc(C#N)cc4)c3c3c2c2c(-c4ccc(C#N)cc4)nc4ccccc4c2n3-c2ccc(OC)cc2)cc1` showed an emission maximum (in ClC(Cl)Cl) of 513 nm.

As for `C[Si](C)(c1c2ccccc2cc2ccccc12)[Si](C)(C)c1c2ccccc2cc2ccccc12`, the emission maximum is, setting by setting: (in C1CCCCC1) 425 nm; (in CC#N) 425 nm.

Turning to `COC(=O)c1ccc2cc(C#N)c3ccc4ccccc4c3c2c1`, the emission maximum (in ClC(Cl)Cl) was 422 nm.

With `Nc1ccc2c(c1)C(=O)O/C2=C\c1ccc(Cl)cc1`, the emission maximum runs as follows: (in CC#N) 452.9 nm; (in CC(C)=O) 448.83 nm; (in CC(C)CO) 483.09 nm; (in CC(C)O) 484.97 nm; (in CCCO) 484.5 nm; (in CCO) 487.33 nm. Also, the emission maximum was determined as 461.68 nm (in CCOC(C)=O), 427.17 nm (in CCOCC) and 492.13 nm (in CO).

For `COc1ccc2cc(C3=[N+]4C(=Nc5c(-c6ccccc6)cc(-c6ccc7cc(OC)ccc7c6)n5[B-]4(F)F)C(c4ccccc4)=C3)ccc2c1`, the emission maximum is listed as 733 nm (in ClC(Cl)Cl) and 733 nm (in ClCCl).

Where the note is “in ClCCl”, `CCOC(=O)c1ccc(C2CC(c3cccc4ccccc34)=NN2c2ccc(OC)cc2)cc1` (configuration not stated) displayed an emission maximum of 505 nm.

For `c1ccc(N(c2ccccc2)c2ccc(-n3ccc4cc(-c5cccc6c5-c5ccccc5C6(c5ccccc5)c5ccccc5)ccc43)cc2)cc1`, the emission maximum (in ClCCl) is 381 nm.

Where the note is “in CC#N”, `Cn1ccc(-c2nc3ccccc3nc2/C=C/N2CCCC2)c1` returned an emission maximum of 579.08 nm.

In the case of `N#Cc1c(-n2c3ccccc3c3cc(Br)ccc32)c(-n2c3ccccc3c3cc(Br)ccc32)c(C#N)c(-n2c3ccccc3c3cc(Br)ccc32)c1-n1c2ccccc2c2cc(Br)ccc21`, under “in Cc1ccccc1”, the emission maximum was determined as 543 nm.

In the case of `CCN(CC)c1ccc(/C=N/c2ccccc2/N=C/c2ccc(N(CC)CC)cc2O)c(O)c1`, the emission maximum reads like this: (in CC#N) 502 nm; (in CN(C)C=O) 573 nm; (in ClCCl) 535 nm.

With `N#Cc1c(-c2ccccc2)cc(N2c3ccccc3Oc3ccccc32)cc1-c1ccccc1`, the emission maximum (in C1CCCCC1) is on record as 455 nm.

For the molecule `CCCCCCCCN1c2ccccc2Sc2cc(/C=C/c3ccc(N(c4ccc(/C=C/c5ccc6c(c5)Sc5ccccc5N6CCCCCCCC)cc4)c4ccc(/C=C/c5ccc(/C=C/c6ccc(N(c7ccc(/C=C/c8ccc9c(c8)Sc8ccccc8N9CCCCCCCC)cc7)c7ccc(/C=C/c8ccc9c(c8)Sc8ccccc8N9CCCCCCCC)cc7)cc6)c6nsnc56)cc4)cc3)ccc21`, the emission maximum is, setting by setting: (in C1CCOC1) 654 nm; (in CCOC(C)=O) 644 nm; (in CN(C)C=O) 750 nm; (in Cc1ccccc1) 620 nm; (in ClC(Cl)Cl) 663 nm; (in ClCCl) 710 nm.

Regarding `CN1/C(=C/C=C(/C=C/c2sc3ccccc3[n+]2C)c2ccccc2)Sc2ccccc21`, the emission maximum was determined as 676 nm (in CCO), 679 nm (in CO), 683 nm (in CS(C)=O) and 673 nm (in O).

Consider `CC(C)(C)c1ccc2oc3nc4oc5ccc(N(c6ccccc6)c6ccccc6)cc5c4cc3c2c1`, for which, where the note is “in ClC(Cl)Cl”, the emission maximum is on record as 379 nm.

`CCOC(=O)c1cc(C(=O)OCC)c2cccc(O)c2n1` had an emission maximum (in CCO) of 527 nm.

`CN(C)c1ccc(-c2ccc(-c3cc(-c4ccccc4)c(-c4ccccc4)c(-c4ccccc4)c3-c3ccccc3)nc2)cc1` had an emission maximum (in ClC(Cl)Cl) of 429 nm.

As to `c1ccc2[nH]c(-c3cc(-c4nc5ccccc5[nH]4)cc(-c4nc5ccccc5[nH]4)c3)nc2c1`, under “in CS(C)=O”, the emission maximum was 379.1 nm.

For `COc1ccc2n1[B-](F)(F)[N+]1=CC=CC1=C2c1ccccc1`, the emission maximum runs as follows: (in CC#N) 513 nm; (in CCCCCC) 514 nm; (in CCOC(C)=O) 514 nm; (in CO) 512 nm; (in ClCCl) 518 nm.

For the molecule `CC1(C)CC(/C=C/c2ccc(N3CCOCCOCCOCCOCC3)cc2)=CC(=C(C#N)C#N)C1`, the emission maximum (in C1CCOC1) amounted to 623 nm; the emission maximum (in CC#N) came to 640 nm; the emission maximum (in CCO) is on record as 641 nm; the emission maximum (in CCOC(C)=O) was 618 nm; the emission maximum (in ClCCl) is 625 nm; the emission maximum (in c1ccccc1) is 596 nm.

Where the note is “in ClCCl”, `N#CC(C#N)=Cc1ccc2c(c1)c1cc(C=C(C#N)C#N)ccc1n2-c1cccc2ccccc12` returned an emission maximum of 453 nm.

Molecule `CCCC1=Cc2nc1ccc1[nH]c(cc1CCO)c1nc(ccc3[nH]c2cc3CCC)C(CCO)=C1` yielded an emission maximum (in Cc1ccccc1) of 642 nm.

For `CC1(C)c2ccccc2N(c2ccc(-c3nc([C@]45CC6CC(C[C@@H](C6)C4)C5)nc([C@]45C[C@H]6C[C@@H](C[C@H](C6)C4)C5)n3)cc2)c2ccccc21`, the emission maximum was 450 nm (in CC(C)(C)c1ccc(-n2c3ccc([Si](c4ccccc4)(c4ccccc4)c4ccccc4)cc3c3cc([Si](c4ccccc4)(c4ccccc4)c4ccccc4)ccc32)cc1) and 469.63 nm (in Cc1ccccc1).

In the case of `N#Cc1c(-c2ccccc2)cc(-c2ccccc2)[nH]c1=S`, the emission maximum (in C1CCCCC1) came to 510 nm; the emission maximum (in C1COCCO1) amounted to 512 nm; the emission maximum (in CC#N) was 495 nm; the emission maximum (in CCCCO) was 506 nm; the emission maximum (in CCCO) is 493 nm; the emission maximum (in CCO) is on record as 465 nm. The emission maximum is, setting by setting: (in CCOC(C)=O) 502 nm; (in CCOCC) 518 nm; (in CN(C)C=O) 505 nm; (in ClC(Cl)(Cl)Cl) 510 nm.

As for `Cc1cc(C)c(C2=C3C=C(/C=C/C(=O)OC(C)(C)C)C=[N+]3[B-](F)(F)n3cc(/C=C/C(=O)OC(C)(C)C)cc32)c(C)c1`, the emission maximum (in ClCCl) is 610 nm.

Molecule `O=[N+]([O-])c1ccc(O)c(-c2nc3c(c4c2-c2ccccc2CC4)-c2ccccc2CC3)c1` had an emission maximum (in ClCCl) of 541 nm.

As to `CC(C)(C)c1ccc2c(c1)-c1c3c(c4c5c1-c1cc(C(C)(C)C)ccc1OB5Oc1ccc(C(C)(C)C)cc1-4)-c1cc(C(C)(C)C)ccc1OB3O2`, where the note is “in ClCCl”, the emission maximum was 436 nm.

In the case of `N#CC(C#N)=Cc1nc2ccc(C#Cc3ccc(N(c4ccccc4)c4ccccc4)cc3)cc2s1`, the emission maximum (in Cc1ccccc1) amounted to 617 nm.

As for `c1ccc(-c2nnc(-c3ccc(N4c5ccccc5Oc5ccccc54)cc3)o2)cc1`, the emission maximum is listed as 495 nm (in Cc1ccccc1) and 498 nm (in c1ccc(-n2c(-c3c(-n4c5ccccc5c5ccccc54)cccc3-n3c4ccccc4c4ccccc43)nc3ccccc32)cc1).

For the molecule `COc1ccccc1C1=[N+]2C(=C(c3ccccc3)c3c4ccccc4c(-c4ccccc4OC)n3[B-]2(F)F)c2ccccc21`, for the setting “in ClCCl”, the emission maximum worked out at 652 nm.

The values are drawn from the Deep4Chem optical property database.
